Reference: the Kinase Knowledgebase extract (Sharma et al. 2016)

Molecular target: PIK3CG (human) (UniProt P48736)
Assay: Assessment of PIK3CG Kinase Activity

Sequence of PIK3CG (human) (P48736 whole entry, looked up): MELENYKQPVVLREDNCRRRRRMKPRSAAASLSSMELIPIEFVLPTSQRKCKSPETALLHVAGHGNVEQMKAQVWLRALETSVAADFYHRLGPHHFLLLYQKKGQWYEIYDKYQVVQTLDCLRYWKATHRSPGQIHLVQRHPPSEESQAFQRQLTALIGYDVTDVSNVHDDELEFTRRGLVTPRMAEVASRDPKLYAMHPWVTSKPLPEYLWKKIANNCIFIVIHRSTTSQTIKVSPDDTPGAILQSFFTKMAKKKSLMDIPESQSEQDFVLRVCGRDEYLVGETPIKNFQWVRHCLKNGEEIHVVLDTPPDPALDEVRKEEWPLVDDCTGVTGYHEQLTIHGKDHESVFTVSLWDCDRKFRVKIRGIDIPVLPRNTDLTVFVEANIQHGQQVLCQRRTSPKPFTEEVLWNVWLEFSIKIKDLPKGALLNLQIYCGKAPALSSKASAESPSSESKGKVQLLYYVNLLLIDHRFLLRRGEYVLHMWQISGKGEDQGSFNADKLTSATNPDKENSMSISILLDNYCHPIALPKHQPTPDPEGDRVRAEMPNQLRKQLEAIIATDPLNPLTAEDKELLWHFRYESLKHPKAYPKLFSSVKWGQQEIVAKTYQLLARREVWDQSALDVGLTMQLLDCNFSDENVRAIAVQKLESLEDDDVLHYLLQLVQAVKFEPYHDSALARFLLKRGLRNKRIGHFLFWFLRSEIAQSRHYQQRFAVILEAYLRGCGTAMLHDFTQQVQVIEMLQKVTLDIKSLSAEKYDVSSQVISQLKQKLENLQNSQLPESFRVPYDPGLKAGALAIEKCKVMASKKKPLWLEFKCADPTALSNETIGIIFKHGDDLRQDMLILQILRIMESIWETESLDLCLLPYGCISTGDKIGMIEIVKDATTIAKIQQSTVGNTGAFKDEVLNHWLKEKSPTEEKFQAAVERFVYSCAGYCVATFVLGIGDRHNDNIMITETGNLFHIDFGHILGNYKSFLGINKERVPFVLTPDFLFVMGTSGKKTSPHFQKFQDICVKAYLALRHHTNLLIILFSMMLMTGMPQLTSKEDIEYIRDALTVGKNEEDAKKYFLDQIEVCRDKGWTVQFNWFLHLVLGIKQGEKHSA

IC50, < 0.8 µM:
CC(C)N1CC(=O)N(C)c2cnc(Nc3cc(NC(=O)[C@@H]4CCN(C5CCCC5)C4)cc(S(C)(=O)=O)c3)nc21
Cc1ccccc1CC(=O)Nc1cc(Nc2ncc3c(n2)N(C(C)C)CC(=O)N3C)cc(S(C)(=O)=O)c1
CC(C)N1CC(=O)N(C)c2cnc(Nc3cc(C(=O)NCCc4ccncc4)cc(S(C)(=O)=O)c3)nc21
CC(C)N1CC(=O)N(C)c2cnc(Nc3cccc(S(=O)(=O)CCNC4CCC4)c3)nc21
CC(C)N1CC(=O)N(C)c2cnc(Nc3cc(NC(=O)C4CNCCO4)cc(S(C)(=O)=O)c3)nc21 (stereo not drawn)
CC(C)N1CC(=O)N(C)c2cnc(Nc3cc(NC(=O)[C@@H]4CCCN(C5CCCC5)C4)cc(S(C)(=O)=O)c3)nc21
CC(C)N1CC(=O)N(C)c2cnc(Nc3cc(NS(C)(=O)=O)cc(C(=O)NCCc4ccccn4)c3)nc21
CC(C)N1CC(=O)N(C)c2cnc(Nc3cc(NC(=O)C(C)(C)c4ccccc4)cc(S(C)(=O)=O)c3)nc21
CC(C)N1CC(=O)N(C)c2cnc(Nc3cc(NS(=O)(=O)c4cccnc4)cc(S(C)(=O)=O)c3)nc21
CC(C)N1CC(=O)N(C)c2cnc(Nc3cc(NC(=O)N[C@H]4CCN(C5CCCC5)C4)cc(S(N)(=O)=O)c3)nc21
CC(C)N1CC(=O)N(C)c2cnc(Nc3cc(NC(=O)Cc4cccs4)cc(S(C)(=O)=O)c3)nc21
CC(C)N1CC(=O)N(C)c2cnc(Nc3cc(NC(=O)N[C@@H]4CCN(C5CCOCC5)C4)cc(S(C)(=O)=O)c3)nc21
CC(C)N1CC(=O)N(C)c2cnc(Nc3cc(NC(=O)CC4CC4)cc(S(C)(=O)=O)c3)nc21
Cc1cc(CC(=O)Nc2cc(Nc3ncc4c(n3)N(C(C)C)CC(=O)N4C)cc(S(C)(=O)=O)c2)on1
CC(C)N1CC(=O)N(C)c2cnc(Nc3cc(NC(=O)N[C@H]4CCN(Cc5ccccc5)C4)cc(S(C)(=O)=O)c3)nc21
CC(C)N1CC(=O)N(C)c2cnc(Nc3cc(C#N)cc(S(C)(=O)=O)c3)nc21
CCC(C)Nc1cc(Nc2ncc3c(n2)N(C(C)C)CC(=O)N3C)cc(S(C)(=O)=O)c1 (stereo not drawn)
CC(C)N1CC(=O)N(C)c2cnc(Nc3cc(S(C)(=O)=O)cc(S(C)(=O)=O)c3)nc21
CC(C)N1CC(=O)N(C)c2cnc(Nc3cc(NC(=O)NCCN4CCNC4=O)cc(S(C)(=O)=O)c3)nc21
CC(C)N1CC(=O)N(C)c2cnc(Nc3cc(C(=O)NC4CCN(C)C4)cc(S(C)(=O)=O)c3)nc21 (stereo not drawn)
CC(C)N1CC(=O)N(C)c2cnc(Nc3cc(NC(=O)c4ccsc4)cc(S(C)(=O)=O)c3)nc21
CNC(=O)Nc1cc(Nc2ncc3c(n2)N(C(C)C)CC(=O)N3C)cc(S(C)(=O)=O)c1
CC(C)N1CC(=O)N(C)c2cnc(Nc3cc(NC(=O)N[C@@H]4CCNC4)cc(S(C)(=O)=O)c3)nc21
CC(C)N1CC(=O)N(C)c2cnc(Nc3cc(NC(=O)[C@@H]4CCNC4)cc(S(C)(=O)=O)c3)nc21
CC(C)N1CC(=O)N(C)c2cnc(Nc3cc(NC(N)=O)cc(S(C)(=O)=O)c3)nc21
CC(C)N1CC(=O)N(C)c2cnc(Nc3cc(N(C)C(=O)Cc4cccc(Cl)c4)cc(S(C)(=O)=O)c3)nc21
CC(C)N1CC(=O)N(C)c2cnc(Nc3cc(NC(=O)O[C@H]4CCN(C5CCCC5)C4)cc(S(C)(=O)=O)c3)nc21
CC(C)N1CC(=O)N(C)c2cnc(Nc3cc(NC(=O)Cc4ccsc4)cc(S(C)(=O)=O)c3)nc21
CC(C)N1CC(=O)N(C)c2cnc(Nc3cc(C(=O)NCc4ccncc4)cc(S(C)(=O)=O)c3)nc21
CC(C)N1CC(=O)N(C)c2cnc(Nc3cc(NC(=O)C[C@H]4CCNC4)cc(S(C)(=O)=O)c3)nc21
CC(C)N1CC(=O)N(C)c2cnc(Nc3cc(NS(=O)(=O)c4ccc(F)cc4)cc(S(N)(=O)=O)c3)nc21
CC(C)N1CC(=O)N(C)c2cnc(Nc3cc(NC(=O)NC[C@@H]4CCCN4)cc(S(C)(=O)=O)c3)nc21
CC(C)N1CC(=O)N(C)c2cnc(Nc3cc(NC(=O)Cc4cccc(F)c4)cc(S(C)(=O)=O)c3)nc21
Cc1c[nH]c(CCNC(=O)c2cc(Nc3ncc4c(n3)N(C(C)C)CC(=O)N4C)cc(NS(C)(=O)=O)c2)n1
CC(C)N1CC(=O)N(C)c2cnc(Nc3cc(NS(=O)(=O)Cc4ccccc4)cc(S(C)(=O)=O)c3)nc21
CC(C)N1CC(=O)N(C)c2cnc(Nc3cc(NC(=O)NCc4cc(C5CC5)[nH]n4)cc(S(C)(=O)=O)c3)nc21
CC(C)N1CC(=O)N(C)c2cnc(Nc3cc(NC(=O)[C@@H]4CCCN4C4CCCC4)cc(S(C)(=O)=O)c3)nc21
CC(C)N1CC(=O)N(C)c2cnc(Nc3cc(NC(=O)[C@H](N)c4ccccc4)cc(S(C)(=O)=O)c3)nc21
CCN1CCCC1CNC(=O)c1cc(Nc2ncc3c(n2)N(C(C)C)CC(=O)N3C)cc(NS(C)(=O)=O)c1 (stereo not drawn)
CC(C)N1CC(=O)N(C)c2cnc(Nc3cc(NC(=O)[C@H](C)C4CCCCC4)cc(S(C)(=O)=O)c3)nc21
CC(C)N1CC(=O)N(C)c2cnc(Nc3cc(N(C)C(=O)Cc4ccccc4)cc(S(C)(=O)=O)c3)nc21
CC(C)N1CC(=O)N(C)c2cnc(Nc3cc(NC(=O)C4CN(C5CCCC5)CCO4)cc(S(C)(=O)=O)c3)nc21 (stereo not drawn)
CC(C)N1CC(=O)N(C)c2cnc(Nc3cc(NC(=O)C[C@@H]4CCN(C5CCCC5)C4)cc(S(C)(=O)=O)c3)nc21
Cc1cc(CNC(=O)Nc2cc(Nc3ncc4c(n3)N(C(C)C)CC(=O)N4C)cc(S(C)(=O)=O)c2)n[nH]1
CC[C@@H]1CN(c2cccc(Nc3ncc4c(n3)N(C(C)C)CC(=O)N4C)c2)C(=O)CN1C
CC(C)N1CC(=O)N(C)c2cnc(Nc3cc(NC(=O)N(C)C[C@H]4CCCN4C4CCCC4)cc(S(C)(=O)=O)c3)nc21
CC(C)N1CC(=O)N(C)c2cnc(Nc3cc(NC4CCC(N)CC4)cc(S(C)(=O)=O)c3)nc21 (stereo not drawn)
CN=[S@@](C)(=O)c1cccc(Nc2ncc3c(n2)N(C(C)C)CC(=O)N3C)c1
CCS(=O)(=O)c1cccc(Nc2ncc3c(n2)N(C2CCCCC2)CC(=O)N3C)c1
CC(C)N1CC(=O)N(C)c2cnc(Nc3cc(N(C)C(=O)N[C@H]4CCN(C5CCCC5)C4)cc(S(C)(=O)=O)c3)nc21
Cc1oncc1C(=O)Nc1cc(Nc2ncc3c(n2)N(C(C)C)CC(=O)N3C)cc(S(C)(=O)=O)c1
CN1C(=O)CN(c2ccccc2)c2nc(Nc3cccc(S(=O)(=O)CCNC4CC4)c3)ncc21
CN1C(=O)CN(c2ccccc2)c2nc(Nc3cccc(S(=O)(=O)CCN4CCCCC4)c3)ncc21
CC(C)N1CC(=O)N(C)c2cnc(Nc3cc(NS(=O)(=O)c4cccnc4)cc(S(N)(=O)=O)c3)nc21
CC(C)N1CC(=O)N(C)c2cnc(Nc3cc(NC(=O)N(C)C[C@@H]4CCCN4C4CCCC4)cc(S(C)(=O)=O)c3)nc21
CC(C)N1CC(=O)N(C)c2cnc(Nc3cc(NC(=O)O[C@@H]4CCN(C5CCCC5)C4)cc(S(C)(=O)=O)c3)nc21
CC(C)N1CC(=O)N(C)c2cnc(Nc3cc(NC(=O)[C@@H](C)c4ccccc4)cc(S(C)(=O)=O)c3)nc21
CC(C)N1CC(=O)N(C)c2cnc(Nc3cc(NS(C)(=O)=O)cc(C(=O)NC4CCN(C)C4)c3)nc21 (stereo not drawn)
CC(C)CCC(=O)Nc1cc(Nc2ncc3c(n2)N(C(C)C)CC(=O)N3C)cc(S(C)(=O)=O)c1
CC(C)N1CC(=O)N(C)c2cnc(Nc3cc(NC(=O)NCc4ccccc4)cc(S(C)(=O)=O)c3)nc21
CC(C)N1CC(=O)N(C)c2cnc(Nc3cc(NC(=O)CCC4CCCC4)cc(S(C)(=O)=O)c3)nc21
CC(C)N1CC(=O)N(C)c2cnc(Nc3cc(N(C)C(=O)Cc4cccs4)cc(S(C)(=O)=O)c3)nc21
CC(C)N1CC(=O)N(C)c2cnc(Nc3cc(NC(=O)[C@@H]4CCCNC4)cc(S(C)(=O)=O)c3)nc21
CC(C)N1CC(=O)N(C)c2cnc(Nc3cc(CO)cc(S(C)(=O)=O)c3)nc21
CC(C)N1CC(=O)N(C)c2cnc(Nc3cc(NC(=O)NC[C@H]4CCCN4C4CCCC4)cc(S(C)(=O)=O)c3)nc21
CC(C)N1CC(=O)N(C)c2cnc(Nc3cc(NC(=O)N[C@@H]4CCN(C5CCCC5)C4)cc(NS(C)(=O)=O)c3)nc21
CC(C)N1CC(=O)N(C)c2cnc(Nc3cc(NC(=O)[C@@H]4CCCN4)cc(S(C)(=O)=O)c3)nc21
CC(C)N1CC(=O)N(C)c2cnc(Nc3cc(NC(=O)N[C@@H]4CCN(C5CCCC5)C4)cc(S(N)(=O)=O)c3)nc21
CC(C)N1CC(=O)N(C)c2cnc(Nc3cc(NS(C)(=O)=O)cc(C(=O)NCCC4CCCN4C)c3)nc21 (stereo not drawn)
CC(C)N1CC(=O)N(C)c2cnc(Nc3cc(Nc4ccc(CN5CCN(C)CC5)cc4)cc(S(C)(=O)=O)c3)nc21
CC(C)N1CC(=O)N(C)c2cnc(Nc3cc(C(=O)N(C)Cc4ccncc4)cc(S(C)(=O)=O)c3)nc21
CC(C)NCCS(=O)(=O)c1cccc(Nc2ncc3c(n2)N(C(C)C)CC(=O)N3C)c1
CC(C)N1CC(=O)N(C)c2cnc(Nc3cc(NC(=O)N[C@H]4CC[C@@H](N(C)C)CC4)cc(S(C)(=O)=O)c3)nc21
